Values after ≈ are worked out from the molar mass of the structure shown.
Tests used:
[1] = system: Pseudomonas aeruginosa; experiment: Antibacterial activity against Pseudomonas aeruginosa by dilution technique; assay type: functional
[2] = system: Staphylococcus aureus; experiment: Antibacterial activity against Staphylococcus aureus RN4220 by dilution technique; assay type: functional
[3] = system: Escherichia coli; experiment: Antibacterial activity against Escherichia coli by dilution technique; assay type: functional
[4] = system: Bacillus subtilis; experiment: Antibacterial activity against Bacillus subtilis 168 by dilution technique; assay type: functional; conditions: subsp. subtilis str. 168
[5] = system: Acinetobacter baumannii; experiment: Antibacterial activity against Acinetobacter baumannii by dilution technique; assay type: functional
[6] = system: HEK293; experiment: Cytotoxicity against human HEK293 cells after 72 hrs by MTT assay; assay type: cell-based; conditions: HEK293, 72 h
[7] = system: Staphylococcus aureus; experiment: Antibacterial activity against community associated methicillin-resistant Staphylococcus aureus USA300 by dilution technique in presence of kanamycin; assay type: functional
[8] = system: Staphylococcus aureus; experiment: Antibacterial activity against community associated methicillin-resistant Staphylococcus aureus USA300 by dilution technique in presence of chloramphenicol; assay type: functional
[9] = Selectivity index, ratio of IC50 for human HeLa cells to MIC for Staphylococcus aureus RN4220; assay type: functional
[10] = system: Staphylococcus aureus; experiment: Antibacterial activity against community associated methicillin-resistant Staphylococcus aureus USA300 by dilution technique; assay type: functional
[11] = Selectivity index, ratio of IC50 for human HEK293 cells to MIC for Staphylococcus aureus RN4220; assay type: functional
[12] = system: Bacillus subtilis; experiment: Antibacterial activity against Bacillus subtilis 168 by dilution technique in presence of chloramphenicol; assay type: functional, subsp. subtilis str. 168
[13] = Selectivity index, ratio of IC50 for human HEK293 cells to MIC for community associated methicillin-resistant Staphylococcus aureus USA300; assay type: functional
[14] = system: Bacillus subtilis; experiment: Antibacterial activity against Bacillus subtilis 168 by dilution technique in presence of kanamycin; assay type: functional, subsp. subtilis str. 168
[15] = Selectivity index, ratio of IC50 for human HeLa cells to MIC for community associated methicillin-resistant Staphylococcus aureus USA300; assay type: functional
[16] = system: HeLa; experiment: Cytotoxicity against human HeLa cells after 72 hrs by MTT assay; assay type: cell-based

Row | SMILES | MIC [1] [µg/mL] | MIC [2] [µg/mL] | MIC [3] [µg/mL] | MIC [4] [µg/mL] | MIC [5] [µg/mL] | IC50 [6] [µg/mL] | fractional inhibitory concentration index (FICI) [7] | fractional inhibitory concentration index (FICI) [8] | Selectivity Index [9] | MBC [10] [µg/mL] | MIC [10] [µg/mL] | Selectivity Index [11] | fractional inhibitory concentration index (FICI) [12] | MBC [2] [µg/mL] | MBC [4] [µg/mL] | Selectivity Index [13] | fractional inhibitory concentration index (FICI) [14] | Selectivity Index [15] | IC50 [16] [µg/mL]
1 | CC(C)(O)[C@H]1CC[C@@](C)([C@H]2CC[C@]3(C)[C@@H]2[C@H](O)C[C@@H]2[C@@]4(C)CCC(=O)C(C)(C)[C@@H]4CC[C@]23C)O1 | > 128 | 128 (≈ 270 µM) | > 128 | 128 (≈ 270 µM) | > 128 | – | – | – | – | – | – | – | – | – | – | – | – | – | –
2 | CC(=O)O[C@@H]1C[C@@H]2[C@@]3(C)CC[C@H](O)C(C)(C)[C@@H]3CC[C@@]2(C)[C@]2(C)CC[C@H]([C@]3(C)CC[C@@H](C(C)(C)O)O3)[C@@H]12 | 64 (≈ 123 µM) | > 128 | 64 (≈ 123 µM) | > 128 | 64 (≈ 123 µM) | – | – | – | – | – | – | – | – | – | – | – | – | – | –
3 | CC(C)(O)[C@@H]1CC[C@@](C)([C@H]2CC[C@]3(C)[C@@H]2C(=O)C[C@@H]2[C@@]4(C)CC[C@H](O)C(C)(C)[C@@H]4CC[C@]23C)O1 | > 128 | 64 (≈ 135 µM) | 64 (≈ 135 µM) | > 128 | > 128 | – | – | – | – | – | – | – | – | – | – | – | – | – | –
4 | CC(C)(O)[C@@H]1CC[C@@](C)([C@H]2CC[C@]3(C)[C@@H]2[C@H](OC(=O)c2ccccc2C(=O)O)C[C@@H]2[C@@]4(C)CC[C@H](O)C(C)(C)[C@@H]4CC[C@]23C)O1 | 128 (≈ 205 µM) | 4 (≈ 6.4 µM) | > 128 | 16 (≈ 25.6 µM) | > 128 | 175 (≈ 281 µM) | 0.008 | 0.005 | 13.6 | 128 (≈ 205 µM) | 32 (≈ 51.2 µM) | 43.8 | <0.004 | 64 (≈ 102 µM) | 64 (≈ 102 µM) | 5.5 | <0.008 | 1.7 | 54.4 (≈ 87 µM)
5 | CC(C)(O)[C@@H]1CC[C@@](C)([C@H]2CC[C@]3(C)[C@@H]2[C@H](OC(=O)/C=C/c2ccccc2)C[C@@H]2[C@@]4(C)CC[C@H](O)C(C)(C)[C@@H]4CC[C@]23C)O1 | 128 (≈ 211 µM) | > 128 | > 128 | > 128 | 32 (≈ 52.7 µM) | – | – | – | – | – | – | – | – | – | – | – | – | – | –
6 | CC(=O)O[C@@H]1C[C@@H]2[C@@]3(C)CC[C@H](O)C(C)(C)[C@@H]3CC[C@@]2(C)[C@]2(C)CC[C@H]([C@]3(C)CC[C@H](C(C)(C)O)O3)[C@@H]12 | 128 (≈ 247 µM) | 64 (≈ 123 µM) | 64 (≈ 123 µM) | > 128 | 128 (≈ 247 µM) | – | – | – | – | – | – | – | – | – | – | – | – | – | –
7 | CC(C)(O)[C@H]1CC[C@@](C)([C@H]2CC[C@]3(C)[C@@H]2C(=O)C[C@@H]2[C@@]4(C)CC[C@H](O)C(C)(C)[C@@H]4CC[C@]23C)O1 | > 128 | > 128 | > 128 | 128 (≈ 270 µM) | > 128 | – | – | – | – | – | – | – | – | – | – | – | – | – | –
8 | CC(C)(O)[C@H]1CC[C@@](C)([C@H]2CC[C@]3(C)[C@@H]2[C@H](OC(=O)c2ccccc2C(=O)O)C[C@@H]2[C@@]4(C)CC[C@H](O)C(C)(C)[C@@H]4CC[C@]23C)O1 | > 128 | 64 (≈ 102 µM) | > 128 | 16 (≈ 25.6 µM) | > 128 | – | – | – | – | – | 64 (≈ 102 µM) | – | – | – | 128 (≈ 205 µM) | – | – | – | –
9 | CC(C)(O)[C@H]1CC[C@@](C)([C@H]2CC[C@]3(C)[C@@H]2[C@H](O)C[C@@H]2[C@@]4(C)CC[C@H](O)C(C)(C)[C@@H]4CC[C@]23C)O1 | > 128 | 64 (≈ 134 µM) | > 128 | 128 (≈ 268 µM) | 128 (≈ 268 µM) | – | – | – | – | – | – | – | – | – | – | – | – | – | –
10 | CC(C)(O)[C@@H]1CC[C@@](C)([C@H]2CC[C@]3(C)[C@@H]2C(=O)C[C@@H]2[C@@]4(C)CCC(=O)C(C)(C)[C@@H]4CC[C@]23C)O1 | > 128 | 16 (≈ 33.8 µM) | > 128 | 64 (≈ 135 µM) | > 128 | 170 (≈ 360 µM) | – | – | 2.9 | – | 16 (≈ 33.8 µM) | 10.6 | – | – | – | 10.6 | – | 2.9 | 47 (≈ 99.4 µM)
11 | CC(C)(O)[C@@H]1CC[C@@](C)([C@H]2CC[C@]3(C)[C@@H]2[C@H](O)C[C@@H]2[C@@]4(C)CCC(=O)C(C)(C)[C@@H]4CC[C@]23C)O1 | > 128 | > 128 | > 128 | 32 (≈ 67.4 µM) | > 128 | – | – | – | – | – | – | – | – | – | – | – | – | – | –
12 | CC(C)(O)[C@H]1CC[C@@](C)([C@H]2CC[C@]3(C)[C@@H]2C(=O)C[C@@H]2[C@@]4(C)CCC(=O)C(C)(C)[C@@H]4CC[C@]23C)O1 | > 128 | 128 (≈ 271 µM) | > 128 | 128 (≈ 271 µM) | > 128 | – | – | – | – | – | – | – | – | – | – | – | – | – | –
13 | C=C(C)[C@@H]1CC[C@]2(C(=O)O)CC[C@]3(C)[C@H](CC[C@@H]4[C@@]5(C)CC[C@H](O)[C@@](C)(CO)[C@@H]5CC[C@]43C)[C@@H]12 | > 128 | 16 (≈ 33.8 µM) | > 128 | 8 (≈ 16.9 µM) | > 128 | – | – | – | – | – | 16 (≈ 33.8 µM) | – | – | – | – | – | – | – | –
14 | CC(C)=CCC[C@](C)(O)[C@H]1CC[C@]2(C)[C@@H]1[C@H](O)C[C@@H]1[C@@]3(C)CC[C@H](O)C(C)(C)[C@@H]3CC[C@]12C | > 128 | 16 (≈ 34.7 µM) | 64 (≈ 139 µM) | 32 (≈ 69.5 µM) | 64 (≈ 139 µM) | – | 0.26 | 1.13 | – | – | 32 (≈ 69.5 µM) | – | 0.53 | – | – | – | 0.25 | – | –
15 | CC(C)(O)[C@@H]1CC[C@@](C)([C@H]2CC[C@]3(C)[C@@H]2[C@H](O)C[C@@H]2[C@@]4(C)CC[C@H](O)C(C)(C)[C@@H]4CC[C@]23C)O1 | > 128 | 8 (≈ 16.8 µM) | > 128 | 8 (≈ 16.8 µM) | > 128 | 154 (≈ 324 µM) | 0.14 | 1.5 | 6 | – | 8 (≈ 16.8 µM) | 19.3 | 1.25 | – | – | 19.3 | 1.03 | 6 | 47.6 (≈ 99.9 µM)
16 | O=C(N[C@H](CO)[C@H](O)c1ccc([N+](=O)[O-])cc1)C(Cl)Cl [CHLORAMPHENICOL] | – | – | – | 2 (≈ 6.19 µM) | – | – | – | – | – | – | 4 (≈ 12.4 µM) | – | – | – | – | – | – | – | –
17 | O=c1[nH]cc(F)c(=O)[nH]1 [FLUOROURACIL] | – | – | – | – | – | – | – | – | – | – | – | – | – | – | – | – | – | – | 0.8 (≈ 6.15 µM)
18 | NC[C@H]1O[C@H](O[C@H]2[C@H](O)[C@@H](O[C@H]3O[C@H](CO)[C@@H](O)[C@H](N)[C@H]3O)[C@H](N)C[C@@H]2N)[C@H](O)[C@@H](O)[C@@H]1O [KANAMYCIN] | 8 (≈ 16.5 µM) | 1 (≈ 2.06 µM) | 1 (≈ 2.06 µM) | 0.25 (≈ 0.516 µM) | 1 (≈ 2.06 µM) | – | – | – | – | 4 (≈ 8.26 µM) | 1 (≈ 2.06 µM) | – | – | – | 1 (≈ 2.06 µM) | – | – | – | –

Source: ChEMBL document CHEMBL2424524, “Synthesis and biological evaluation of novel ocotillol-type triterpenoid derivatives as antibacterial agents” (Eur J Med Chem, 2013)
